Results: patent publication US6495571B1, “Pyridine compounds, use and preparation thereof” (Southern Research Institute, priority 1999, dated 2002)
Like-named read-outs stand apart in the source and are kept apart here.

Experiments:
[1] = tested on: P388/CPA (cyclophosphamide-resistant) leukemia; assay type: in vivo, CD2F1 female mice; details: Q1D × 5 (1)
[2] = dogs; cited from earlier work
[3] = one hour infusion for 5 consecutive days, patients; cited from earlier work
Cytotoxicity in vitro = assay type: cell-based
P388/0 murine leukemia = details: Q1D × 5 (1)
[4] = 14C-penclomedine, tumor-bearing rats; cited from earlier work
[5] = rats; cited from earlier work
[6] = tested on: P388/L-PAM (melphalan-resistant) leukemia; details: for 50-DAY SURV./TOTAL: Q1D × 5 (1)
[7] = tested on: human MX-1 mammary tumor (ic, 10^6 cells); assay: In vivo antitumor activity, i.c.-implanted MX-1 xenograft
[8] = tested on: P388/BCNU (carmustine-resistant) leukemia; assay: Antitumor activity against IP-implanted P388/BCNU leukemia; details: Q1D × 5 (1)
[9] = optimal doses (LD10 or less), schedule QD1-5, administered LP.

## COc1nc(C(Cl)(Cl)Cl)c(Cl)c(OC)c1Cl [PEN, 3,5-dichloro-2,4-dimethoxy-6-(trichloromethyl)pyridine]
[1]; IP 60.0 mg/kg/dose
  50-DAY SURV./TOTAL: 0/6
  % ILS: −5%
[1]; IP 90.0 mg/kg/dose
  50-DAY SURV./TOTAL: 0/6
  % ILS: −5%
[1]; IP 135.0 mg/kg/dose
  50-DAY SURV./TOTAL: 0/6
  % ILS: −5%
[2]
  plasma penclomedine levels associated with severe emesis and seizures: above 30 μM
[3]
  neurotoxicity (dysmetria, ataxia, vertigo): principal dose limiting toxicity
Cytotoxicity in vitro
  activity as cytotoxic agents in vitro: inactive
P388/0 murine leukemia; IP 60.0 mg/kg/dose
  50-DAY SURV./TOTAL: 0/6
P388/0 murine leukemia; IP 90.0 mg/kg/dose
  50-DAY SURV./TOTAL: 0/6
  APPROX. NET LOG10 CHANGE IN TUMOR BURDEN AT END OF Rx: −0.8
P388/0 murine leukemia; IP 135.0 mg/kg/dose
  50-DAY SURV./TOTAL: 0/6
  APPROX. NET LOG10 CHANGE IN TUMOR BURDEN AT END OF Rx: −4.8
[4]
  radioactive species in the brain: predominant radioactive species in the brain
[5]
  neurotoxicity (muscle tremors, incoordination, convulsions, reduced activity): Dose related neurotoxicity
[6]; IP 60.0 mg/kg/dose
  50-DAY SURV./TOTAL: 0/6
[6]; IP 90.0 mg/kg/dose
  50-DAY SURV./TOTAL: 0/6
[6]; IP 135.0 mg/kg/dose
  50-DAY SURV./TOTAL: 0/6
[6]; mouse, in vivo
  activity in this tumor model (in words): none of the three showed significant activity
[7]; Table 2 conditions
  cures: not
[7]; [9]
  Median % ILS (based on dying mice only): 88%
  Survivors: 0/5
[8]; IP 60.0 mg/kg/dose
  50-DAY SURV./TOTAL: 0/6
  % ILS: −6%
[8]; IP 90.0 mg/kg/dose
  50-DAY SURV./TOTAL: 0/6
  % ILS: 0%
  MEDIAN DAY OF DEATH: 9.0
[8]; IP 135.0 mg/kg/dose
  50-DAY SURV./TOTAL: 0/6
  % ILS: +27%
